Experiments:
[1] = in words; cited from earlier work
[2] = in words; cited from earlier work; remark: listed apart in the source
[3] = biological target: T1, κ receptor (Cavia porcellus, UniProt P41144); assay: Antagonism of EKC (κ) in electrically stimulated isolated organ; assay type: cell-based, Guinea pig; conditions: for concentration dependency of antagonistic activity: κ receptor, FIGS. 1 and 2; for Slope / γ / Kb: κ, in vitro; for Kb: NLI value is mean ± S.E., read-out: pA2 (50% Confidence Limit) (converted)
T1 construct: from tissue; host or cells: guinea pig ileum, isolated, electrically stimulated
Description: (§1) The term "δ-opioid antagonist" herein used-means a group of compounds which suppress the inhibition by DADLE or DPDPE of contraction of MVD specimen caused by electric stimulation.
(§2) Ke=[antagonist]/(IC50 ratio -1)
(§3) The IC50 ratio used herein is the value obtained by dividing the IC50 of an agonist, which is measured in the presence of an antagonist, with the IC50 value of the […], that is measured in the absence of the antagonist. Ke value is a value which is introduced for compensating the concentration of antagonist when comparing the IC50 ratio. Thus, the smaller the Ke value, the stronger the antagonist activity.
(§4) The antagonistic activities of the naloxindole hydrochloride and the naltrindole methanesulfonic acid salt obtained in Examples 1 and 3 were determined by the following method:
(§5) Guinea pig ileum (containing μ and κ receptors) and mouse vas deferens were taken out and the organs were subjected to electric stimulations. The activities of the compounds for inhibiting the suppression of contraction of the organs by three agonists, that is, morphine (μ), EKC (κ) and DADLE (δ) were measured.

[4] = biological target: T2, μ receptor (Cavia porcellus, UniProt A0ACM8Q262); assay: Antagonism of morphine (μ) in electrically stimulated isolated organ; assay type: cell-based, Guinea pig; conditions: for concentration dependency of antagonistic activity: μ receptor, FIGS. 1 and 2; for Slope / γ / pA2 (50% Confidence Limit): μ, in vitro; for pA2 (50% Confidence Limit): NLI value is mean ± S.E.
T2 construct: antagonism of morphine
Description: as §1, §2, §3, §4, §5

[5] = system: mouse spleen cells; assay: Suppression of mitogen (ConA) reaction; assay type: cell-based, C57BL/6 mouse; conditions: 48 hours, 3 cases, read-out: Suppression Rate of Mitogen Reaction; for inhibition at 1 µg/mL: 1 μg/ml; for inhibition at 10 µg/mL: 10 μg/ml; for inhibition at 50 µg/mL: 50 μg/ml
Description: If mouse spleen cells are cultured in vitro in the presence of concanavalin A (hereinafter referred to as "ConA" for short), the cells are divided and proliferated (mitogen reaction). In this system, the immunosuppressive agent of the present invention or cyclosporin A as a comparative example was added to the culture medium and the effects to the mitogen reaction were examined.
More particularly, C57BL/6 mouse was sacrificed and the spleen was removed. The spleen cells were suspended in RPMI 1640 culture medium containing 10% fetal calf serum (hereinafter referred to as "RPMI 1640" for short) so as to prepare a spleen cell suspension (5×10^6 cells/ml). In the wells of a flat-bottomed 96-well microplate, 100 μl of the suspension was placed and then 50 μl of RPMI 1640 containing ConA (4 μg/ml) as well as 50 μl of RPMI 1640 containing the test compound in the concentration shown in Table 2 were added. The cells were cultured for 48 hours (37° C. 5%CO2) As a control, 50 μl of RPMI 1640 was added. Eight hours before the termination of the culture, 2 μ Ci of [^3 H] thymidine was […], added. After termination of the culture, the cells were collected on a filter paper by using a cell harvester. After drying the filter paper, the filter paper was placed in a vial containing toluene-based scintillator and the radioactivity was measured by a liquid scintillation counter.
The suppression rate of mitogen reaction was calculated according to the following equation: [formula]

[6] = biological target: T3, δ receptor (Mus musculus, UniProt P32300); assay: Antagonism of DADLE (δ) in electrically stimulated isolated organ (vas deferens); assay type: cell-based; conditions: for κ/δ / μ/δ: Ke selectivity ratio; for κ/δ / μ/δ / selectivity to the δ receptors with respect to κ receptors / selectivity to the δ receptors with respect to μ receptors: Table 1; for concentration dependency of antagonistic activity: δ receptor, FIGS. 1 and 2; for Slope / γ / Kb: δ, in vitro; for Kb: read-out: pA2 (50% Confidence Limit) (converted)
T3 construct: from tissue; host or cells: mouse vas deferens, isolated, electrically stimulated
Description: as §1, §2, §3, §4, §5

[7] = system: spleen cells; assay: Suppression of MLR reaction; assay type: cell-based, mouse (C57BL/6 and mitomycin-treated Balb/c); conditions: for inhibition at 1 µg/mL / inhibition at 10 µg/mL / inhibition at 50 µg/mL: Mus musculus, 72 hours, 3 cases, NTI, NTB, NLI as hydrochloric acid salt, read-out: Suppression Rate of MLR Reaction; for inhibition at 1 µg/mL: 1 μg/ml; for inhibition at 10 µg/mL: 10 μg/ml; for inhibition at 50 µg/mL: 50 μg/ml; for MLR reaction: in words, hydrochloric acid salts
Description: If spleen cells from two different lines of mouse which are genetically different, the spleen cells recognize the other type of cells, and the cells are divided and proliferated (MLR reaction).
In this system, hydrochloric acid salt of NTI, NTB or NLI, or for comparison, cyclosporine A was added to the reaction medium and their effect to the MLR reaction was examined.
Balb/c mouse was sacrificed and the spleen was removed. The spleen cells were suspended in RPMI 1640 to prepare a spleen cell suspension (1×10^7 cells/ml). The spleen cells were then cultured in mitomycin C-containing RPMI 1640 for 30 minutes (37° C.) so as to carry out the mitomycin treatment. On the other hand, C57BL/6 mouse was sacrificed and spleen cell suspension (1×10^6 cells/ml) was prepared using RPMI 1640.
In the wells of a 96-well flat-bottomed microplate, 100 μl of C57BL/6 mouse spleen cell suspension, 50 μl of mitomycin-treated Balb/c mouse spleen cell suspension and 50 μl of RPMI 1640 containing the test compound were placed and the cells were cultured for 72 hours (37° C., 5%CO2). As a control, 50 μl of RPMI 1640 was added. Eight hours before the termination of the culture, 2 μCi of [^3 H] thymidine was added. After termination of the culture, the cells were collected on a filter paper by using a cell harvester. After drying the filter paper, the filter paper was placed in a vial containing toluene-based scintillator and the radioactivity was measured by a liquid scintillation counter.
The suppression rate of MLR reaction was calculated according to the following equation: [formula]

[8] = system: graft versus host reaction; assay: Suppression of graft versus host reaction; assay type: in vivo, mouse (BDF1; C57BL/6 spleen cells); conditions: oral; for Suppression Rate of Graft versus Host Reaction: 100 mg/kg, once a day for 5 days, lymph node weight day 7, 4 cases, ** significance level < 0.02 (NTB), * < 0.05 (NTI); for graft versus host reaction: in words
Description: It is known that a graft versus host reaction occurs when spleen cells of a parent are transplanted to F1 mouse. In this system, NTI, NTB or cyclosporine A was administered to F1 mouse and the effects of these compounds on the graft versus host reaction were examined.
C57BL/6 mouse was sacrificed and the spleen was removed. Using phosphate buffered saline, a suspension of spleen cells (2×10^8 cells/ml) was prepared. To plantar of left hind leg of BDF1 mice, 50 μl of this spleen cell suspension was subcutaneously injected. From the day of this injection, each test compound was administered once a day for 5 days. The dose was 100 mg/kg and suspensions of the test compounds in 0.5% carboxymethyl cellulose (hereinafter referred to as "CMC") were orally administered. To the control group, 0.5% CMC alone was administered in the same manner. On the 7th day from the day of injection of the spleen cells, the mice were sacrificed and popliteal lymph nodes of right and left hind legs were removed and the weight of the lymph nodes was measured. The difference between the weight of the lymph nodes of the right and left hind legs was calculated and the difference was used as an index of the graft versus host reaction. The obtained results were analyzed by Student's t-test.
The suppression rate of graft versus host reaction was calculated according to the following equation: [formula]

T3 sequence (P32300 whole entry): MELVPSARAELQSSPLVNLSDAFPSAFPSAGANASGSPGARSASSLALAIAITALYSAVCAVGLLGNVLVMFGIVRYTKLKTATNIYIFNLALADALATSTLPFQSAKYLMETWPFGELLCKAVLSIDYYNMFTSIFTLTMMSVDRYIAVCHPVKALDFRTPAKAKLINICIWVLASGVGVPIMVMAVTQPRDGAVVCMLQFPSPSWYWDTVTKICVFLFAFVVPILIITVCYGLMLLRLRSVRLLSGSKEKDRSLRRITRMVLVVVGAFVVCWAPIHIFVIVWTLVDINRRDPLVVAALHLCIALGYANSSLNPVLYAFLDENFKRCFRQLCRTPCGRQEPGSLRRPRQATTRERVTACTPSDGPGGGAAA
T2 sequence (A0ACM8Q262 1-400): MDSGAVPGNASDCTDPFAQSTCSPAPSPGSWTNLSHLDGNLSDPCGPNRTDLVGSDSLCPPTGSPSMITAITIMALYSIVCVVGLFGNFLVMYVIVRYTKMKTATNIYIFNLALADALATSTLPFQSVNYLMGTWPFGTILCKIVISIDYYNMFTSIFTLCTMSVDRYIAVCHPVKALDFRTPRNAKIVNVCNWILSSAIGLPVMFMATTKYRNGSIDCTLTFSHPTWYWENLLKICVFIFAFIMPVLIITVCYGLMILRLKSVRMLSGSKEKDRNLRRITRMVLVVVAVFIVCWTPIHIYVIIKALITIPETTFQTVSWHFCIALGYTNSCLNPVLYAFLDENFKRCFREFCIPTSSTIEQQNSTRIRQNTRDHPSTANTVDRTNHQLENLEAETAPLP
T1 sequence (P41144 whole entry): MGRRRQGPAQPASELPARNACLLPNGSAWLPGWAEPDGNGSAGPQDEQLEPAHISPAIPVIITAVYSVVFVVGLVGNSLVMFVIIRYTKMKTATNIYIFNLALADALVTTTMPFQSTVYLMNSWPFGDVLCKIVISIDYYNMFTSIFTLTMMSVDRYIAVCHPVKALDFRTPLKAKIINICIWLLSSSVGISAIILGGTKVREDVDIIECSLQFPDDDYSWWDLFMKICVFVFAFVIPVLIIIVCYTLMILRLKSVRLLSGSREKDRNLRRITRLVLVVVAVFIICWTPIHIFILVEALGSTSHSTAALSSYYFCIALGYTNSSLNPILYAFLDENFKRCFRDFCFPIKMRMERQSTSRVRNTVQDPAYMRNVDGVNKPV

Compound	concentration dependency of antagonistic activity [3]	Slope [3]	γ [3]	Kb [3] [nM]	concentration dependency of antagonistic activity [4]	Slope [4]	γ [4]	pA2 (50% Confidence Limit) [4]	inhibition at 1 µg/mL [5] [%]	inhibition at 10 µg/mL [5] [%]	inhibition at 50 µg/mL [5] [%]	κ/δ [6]	μ/δ [6]	selectivity to the δ receptors with respect to κ receptors [6]	selectivity to the δ receptors with respect to μ receptors [6]	concentration dependency of antagonistic activity [6]	inhibition at 1 µg/mL [7] [%]	inhibition at 10 µg/mL [7] [%]	inhibition at 50 µg/mL [7] [%]	MLR reaction [7]	further results
C=CC[C@@H]1/C=C(\C)C[C@H](C)C[C@H](OC)[C@H]2O[C@@](O)(C(=O)C(=O)N3CCCC[C@H]3C(=O)O[C@H](/C(C)=C/[C@@H]3CC[C@@H](O)[C@H](OC)C3)[C@H](C)[C@@H](O)CC1=O)[C@H](C)C[C@@H]2OC [FK-506]																					toxicity to liver [1]: strong toxicity to liver; toxicity to kidney [2]: stronger toxicity to kidney than cyclosporine A
C=CCN1CC[C@]23c4c5ccc(O)c4O[C@H]2c2[nH]c4ccccc4c2C[C@@]3(O)[C@H]1C5 [NLI, naloxindole]	did not show dependency on the concentration	0.105	0.149	141	did not show dependency on the concentration	-0.063	-0.062	6.86 ± 0.01	12	56	100	407	251	about 400 times	about 250 times	concentration-dependent	22	95	100	suppressed	affinity to δ receptors ([6]; in words, NLI vs NTI): slightly inferior to NTI; Slope [6]: 1.066; γ [6]: 0.936; Kb [6]: 0.55 nM
Oc1ccc2c3c1O[C@H]1c4oc5ccccc5c4C[C@@]4(O)[C@@H](C2)N(CC2CC2)CC[C@]314 [NTB, naltrbenzofuran]									14	41	100						5	81	100	suppressed	Suppression Rate of Graft versus Host Reaction [8]: 44%; graft versus host reaction [8]: suppressed
Oc1ccc2c3c1O[C@H]1c4[nH]c5ccccc5c4C[C@@]4(O)[C@@H](C2)N(CC2CC2)CC[C@]314 [NTI, naltrindole]	increases proportionally with its concentration	1.807	0.941	43.7	increases proportionally with its concentration	1.330	0.791	7.42 (7.26-7.58)	12	77	100	104	91	about 100 times	about 100 times	increases proportionally with its concentration	0	100	100	suppressed	Slope [6]: 1.354; γ [6]: 0.863; Kb [6]: 0.417 nM; Suppression Rate of Graft versus Host Reaction [8]: 47%; graft versus host reaction [8]: suppressed

Reference: patent publication US5332818A, “Immunosuppressive agent and process of producing the same” (Toray Industries, Inc., priority 1989, dated 1994)
